These results are taken from US20030190344A1, “Animal feed or feed additive as performance enhancer or appetite enhancer for live stock” (priority 2000, published 2003).

This experiment has as its system aromatic aminoacid-decarboxylase. Briefly: Blockade of aromatic aminoacid-decarboxylase activity. Type of experiment: biochemical. The text has this: This blockade of the aromatic aminoacid-decarboxylase is irreversible and thus is of special interest since it is maintained as long as the enzyme molecules are in the effective range of the benzophenanthridine alkaloids. Sanguinarine and chelerythrine, representative of the benzophenanthridine alkaloids, have an aromatic structure which is similar to that of the aromatic amino acids. The enzyme “aromatic aminoacid-decarboxylase” confuses the ultimate structure of the benzophenanthridine alkaloid with the ring structure of the aromatic amino acid and fits it rather than the amino acids at its active center.

`COc1ccc2c(c[n+](C)c3c4cc5c(cc4ccc23)OCO5)c1OC` [chelerythrine]: the “block the activity of the aromatic aminoacid-decarboxylase” value is 92% and the “reversibility of blockade of the aromatic aminoacid-decarboxylase” value is “irreversible”.
